Source: PubChem BioAssay AID652 (University of Pittsburgh Molecular Library Screening Center, 2007)
Active and inactive are the calls of the source. The rule behind the calls is not given here.

Target: Gag-Pol polyprotein (Human immunodeficiency virus type 1 group M subtype B (isolate HXB2)) (UniProt P04585)
Assay: concentration-response of HIV-1 RNase H blockers – biochemical, probe assessment, dose response (AID 652)
Conditions: HIV-1 RT RNase H enzymatic assay; for inhibition: at 50 µM, stronger effect = higher value

Structure (SMILES)	inhibition	IC50
COC(=O)c1ccccc1NC(=O)c1sc(=S)n(C)c1N	101%	–
COc1ccc2ccccc2c1C1CC(=O)N2CN(C3CCCCC3)CSC2=C1C#N (stereo not given)	92.3%	–
CC(C)c1ccc(C2CC(=O)N3CN(C)CSC3=C2C#N)cc1 (stereo not given)	86.9%	–
N#CC1=C(N)SC(N)=C(C#N)C1c1ccnc2ccccc12	70.4%	13.7 µM
COc1ccc(-n2c(SCC(=O)N3CCCC3)nc3c([nH]c4ccccc43)c2=O)cc1	66.7%	–
COc1ccc(N2CSC3=C(C#N)C(c4cc(OC)c(OC)cc4OC)CC(=O)N3C2)c(OC)c1 (stereo not given)	76.1%	–
C=CCSc1nc2c(cnn2-c2ccc(C)c(C)c2)c(=O)[nH]1	88.6%	13.8 µM
c1ccc2c(c1)nnn2Cc1nnc2sc(-c3ccncc3)nn12	90.6%	–
O=C1C=Cc2ccccc2C1=O	97.7%	2.64 µM
C=CCn1c(SCC(=O)c2ccc(O)c(O)c2)nnc1-c1ccccc1OC	97.5%	–
COc1ccc(OC)c(Nc2nc(-c3ccc(O)c(O)c3)cs2)c1	97.8%	–
N#Cc1c(-c2cccnc2)c2c([nH]c1=S)CCCC2	77.9%	10.2 µM
CCOC(=O)c1c(N)sc2c1CCC1C(=O)N(C3CCCCC3)C(=O)C21 (stereo not given)	96.1%	–
N#Cc1c(NC(=O)c2ccc(Cn3cc(Br)cn3)o2)sc2c1CCCCCC2	98%	–
O=C(Nc1nc(-c2ccncc2)cs1)C1COc2ccccc2O1 (stereo not given)	92.5%	> 50 µM (inactive)
O=C(Nc1ccc(N2CCOCC2)cc1)c1ccc2nc(-c3ccco3)c(-c3ccco3)nc2c1	93.4%	–
O=c1c2ccccc2sn1-c1cc(S(=O)(=O)N2CCOCC2)ccc1N1CCOCC1	84.4%	–
COc1ccccc1-c1nnc2n1N=C(c1ccc(O)c(O)c1)CS2	97%	–
Cc1nn(CCc2nc(-c3ccco3)cs2)c2[nH]c(=O)cc(C(F)(F)F)c12	97.6%	–
Cc1nn2c(-c3cccc(NC(=O)CSc4nc5ccccc5o4)c3)nnc2c2ccccc12	98.2%	–
Nc1c(C(=O)N2CCCCC2)sc(=S)n1-c1ccccc1	83.2%	–

Structure (SMILES)	inhibition	IC50
COC(=O)c1sc(N2C(=O)c3oc4ccccc4c(=O)c3C2c2cccs2)nc1C (stereo not given)	95.8%	–
CC1CCc2c(sc(NC(=O)c3ccc(Cn4cc(Br)cn4)o3)c2C(N)=O)C1 (stereo not given)	76.3%	–
COc1ccccc1N1CSC2=C(C#N)C(c3ccc(SC)cc3)CC(=O)N2C1 (stereo not given)	97.1%	–
O=C(CSc1nc2c([nH]c3ccccc32)c(=O)n1-c1cccc(Cl)c1)N1CCOCC1	82.5%	23.4 µM
CN(C)c1ccc2c(c1)N=C(c1ccco1)OP2(=S)N1CCOCC1 (stereo not given)	92.9%	–
CCOC(=O)c1c(C)[nH]c(C(=O)CSc2nc3ccccc3o2)c1C	93.7%	–
CC1CCN(S(=O)(=O)c2ccc(NC(=O)Cn3nnc(-c4ccccc4)n3)cc2)CC1	61.5%	–
COc1cc(OC)c(C2CC(=O)N3CN(C)CSC3=C2C#N)cc1OC (stereo not given)	76.1%	–
COc1ccc(Br)cc1C1CC(=O)N2CN(C)CSC2=C1C#N (stereo not given)	84.1%	–
Cc1ccc(/C=C/C2=Cc3c(sc(NC(=O)CSc4n[nH]c(N)n4)c3C#N)C(C)(C)C2)o1	91.1%	–
COC(=O)c1ccc2c(c1)N(Cc1nc(-c3ccc(Cl)cc3)oc1C)C(=O)C1CCCN21 (stereo not given)	78.9%	–
CCCc1cc(C(=O)Nc2sc3c(c2C#N)CCC3)no1	92.6%	–
Nc1ccc(-c2nnc(-c3ccc(-c4ccccc4)cc3)o2)cc1	101%	–
CCN(CC)C1=CC(=O)OC12CCCCC2	65.8%	42.8 µM
CCn1c(SCC(=O)c2ccc(O)c(O)c2)nnc1-c1ccccc1OC	98.4%	–
COc1ccc(N2CCN(Cc3cc(=O)oc4cc(-c5ccccc5)c(O)cc34)CC2)cc1	96.2%	–
CCOc1cccc(C=Nc2cc(C)cc(C)c2O)c1O	20.5%	> 50 µM (inactive)
COc1ccc(OC)c(/C=N/c2oc(-c3ccco3)c(-c3ccco3)c2C#N)c1	89.5%	–
CC1CC(C)(C)NC(=S)S1 (stereo not given)	66%	–
C/C=C/CSc1nc2c(c(=O)[nH]c(=O)n2C)n1Cc1ccc(C)cc1	101%	11.2 µM
